{
  "source": "patent US10675293B2",
  "about": "“Nucleoside agents for the reduction of the deleterious activity of extended nucleotide repeat containing genes” (The Board of Trustees of the Leland Stanford Junior …, priority 2015, dated 2020)",
  "key": {"[1]": {"tested_on": "total Huntingtin protein", "test": "Western blot of total HTT in Huntington's disease patient iPSC ND36999", "format": "cell-based, human", "details": "iPSC with 180 CAG repeats, 24 hr", "experimental": "Cell samples were lysed in 30 mM Tris-HCl, pH 8.0, 5 mM NaCl, 0.1% Triton X-100 for 10 min on ice. The supernatants from spinning (14 k rpm for 10 min) were collected. The protein concentrations were determined by BCA assay (Pierce, ThermoFisher). Equal amounts of protein were loaded onto 4-12% gel. After electrophoresis, the gels were transferred to nitrocellulose membranes by wet transfer at 35V for 16 hr. The protein level of mutant HTT, total HTT and tubulin were determined by immunoblotting with anti-poly Glutamine (MAB1574 from Millipore), anti-Huntingtin protein (MAB2166 from Millipore) and anti-alpha tubulin (AJ1034a from ABGENT). Blots were imaged on a Li-Cor Odyssey infrared imager. The bands intensities were determined by Li-Cor Odyssey software.\nTo test whether the nucleoside 6-Azauridine (HD101) and (−)-6-Azauridine 2′,3′,5′-triacetate (HD106) can affect the expression of proteins with long polyQ domains, one iPSC (induced pluripotent stem cell) line ND36999, which was derived from a Huntington's disease patient who carries one allele of mutant htt gene with 180 CAG repeats, was purchased from the Coriell Institute. The iPSCs were plated into a 24-well plate coated with Matrigel. […] Cells were lysed and the protein concentrations were determined by BCA assay. […] The image (FIG. 10) was taken and the quantification was made by Li-Cor Odyssey imaging system."}, "[2]": {"tested_on": "Q20-GFP", "test": "PolyQ-tagged GFP reporter in HEK293 cells, Q20-GFP", "format": "cell-based", "details": "higher concentration, 48 hours after transfection", "source_text": "(§1) CAG repeats and part of the flanking region in the first exon of Htt gene were PCR amplified from cDNA of HD patient lymphoblastoid cells containing one normal and one mutant allele (Q22 and Q44) with additional flanking restriction enzyme sites NheI. The PCR fragments were than in-frame fused with pEGFP-C1 at the end of the EGFP gene to express polyQ tagged GFP.\n(§2) Normal length of poly Q (Q20) and pathogenic length of poly Q(Q44) were in-frame fused at the amino-terminus of eGFPC1 protein to generate Q44- and Q20-GFP (FIG. 8A). The plasmid carrying the polyQ tagged GFP was transfected into HEK 293 cells with greater than 90% transfection efficiency.\n(§3) HEK293 cells were transiently transfected with the above mentioned GFP constructs. Five hours after transfection, cells were split among the wells of a 24-well plate and various concentrations of HD101 were added into the wells. 48 hours after transfection, cells were washed with PBS, fixed with 4% paraformaldehyde, and then nuclear stained with DAPI. The cell images were taken by fluorescent microscope (FIG. 9A) and the GFP and DAPI intensity of each field were quantitated using software Image Pro 6.2."}, "[3]": {"tested_on": "Q44-GFP", "test": "PolyQ-tagged GFP reporter in HEK293 cells, Q44-GFP", "format": "cell-based", "details": "48 hours after transfection", "source_text": "as §1, §2, §3"}, "[4]": {"tested_on": "21-VS cells (HA-Venus)", "test": "Control fluorescence of 21-VS stable cells expressing intact Venus", "format": "cell-based", "details": "higher concentration, where BiFC reduction has reached its plateau", "experimental": "The HA-Supt4h-YC and FLAG-NGN-YN fragments were amplified by PCR using plasmid constructs described above and sub-cloned individually into the pTRE-tight-BI vector (Clontech Laboratories), which contain a bi-directional CMV promoter under the control of tetracycline. The coding sequence of yellow fluorescence protein Venus with a HA-epitope in its N-terminus was PCR-amplified and cloned into the vector to generate pTRE-HA-Venus.\nTet-on HeLa cells were transfected with linearized pTRE-HA-Supt4h-VC-Flag-NGN-VN plasmid construct using LipofectAMINE 2000 (Invitrogen). After transfection, cells were cultured initially in growth medium containing puromycin (1 μg/ml) and then selected for clones that show YFP fluorescence in the presence of tetracycline (4 μg/ml). The stable line having the strongest fluorescence signal was isolated and designated as 2-PN4. […]\nStable lines 2-PN4 and 21-VS were pre-cultured in 6-well plates, followed by an incubation of Doxycycline (4 μg/ml) together with various concentrations of chemical compounds for 24 hr. Cells were washed with PBS (Sigma) and monitored by microscope (20× magnification). Photos were taken using Nikon D500 camera with a setting of ISO 1600, shutter 1/200 for the light images, and shutter ½ for the fluorescence images. […] The average of overall fluorescence signal was determined and compared to the one observed in DMSO-treated control sample. […]"}, "[5]": {"tested_on": "eGFPC1", "test": "GFP reporter in HEK293 cells, eGFPC1 without polyQ", "format": "cell-based", "details": "higher concentration, 48 hours after transfection", "experimental": "as §3"}},
  "data": [
    {"smiles": "O=c1cnn([C@@H]2O[C@H](CO)[C@@H](O)[C@H]2O)c(=O)[nH]1", "note": "[HD101, 6-Azauridine]", "values": [
      {"measurement": "total Huntingtin protein expression level", "setting": "[1]", "value": "little effect"},
      {"measurement": "Q20-GFP expression (GFP intensity normalized with DAPI)", "setting": "[2]", "value": "down regulating both Q20 and Q44-GFP significantly"},
      {"measurement": "Q44-GFP expression (GFP intensity normalized with DAPI)", "setting": "[3]; higher concentration", "value": "down regulating both Q20 and Q44-GFP significantly"},
      {"measurement": "Q44-GFP expression (GFP intensity normalized with DAPI)", "setting": "[3]; low concentration", "value": "down regulates"},
      {"measurement": "fluorescence of 21-VS cells", "setting": "[4]", "value": "markedly affected"},
      {"measurement": "eGFPC1 expression (GFP intensity normalized with DAPI)", "setting": "[5]", "value": "minimum effect"}
    ]}
  ]
}
